Reference: patent US10144715B2, “Piperazine derivatives as liver X receptor modulators” (priority 2014, dated 2018)
Read-outs that look alike come from different tables or passages of the source.

Legend:
[1] = target: Gal4 DNA binding domain fused to the LBD of LXRα in HEK293 cells (Homo sapiens (Human), UniProt Q13133); test: LXR luciferase transcriptional reporter gene assay, agonist mode, LXRα; assay type: cell-based
[2] = target: T1, LXR β LBD protein (Homo sapiens (Human), UniProt P55055); test: biochemical; assay type: biochemical
Procedure: Two μL of the DMSO solutions were transferred to the plate and 38 μL of 10 nM LXRα-LBD or LXRβ-LBD (2×) were added immediately to the wells. The plate was shaken for 5 min at rt on an orbital micro shaker (DPC MicroMix® 5), after which 40 μL of 200 nM fluorescein-SRC2-3 peptide and 20 nM Terbium-anti-GST-antibody (Cat# PV3550, Life Technologies, Grand Island, N.Y.) solution (4×) were added to all. The plate was sealed and shaken for 2 min at rt, and incubated at rt for 2 h without agitation. […] The delay and window times were set at 100 and 200 microseconds, respectively. […] The percent control vs. compound concentration data were fit into a four-parameter model, and EC50 values were calculated from the fit as the concentrations corresponding to the inflection points on the concentration-response curves.
Target sequence in this assay (P55055 222-460): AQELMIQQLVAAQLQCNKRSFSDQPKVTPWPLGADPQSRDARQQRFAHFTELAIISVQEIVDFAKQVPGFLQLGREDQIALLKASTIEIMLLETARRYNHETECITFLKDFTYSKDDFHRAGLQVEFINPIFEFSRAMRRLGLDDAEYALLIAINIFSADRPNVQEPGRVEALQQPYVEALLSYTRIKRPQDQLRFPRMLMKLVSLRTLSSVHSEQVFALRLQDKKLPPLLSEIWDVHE

[3] = target: Gal4 DNA binding domain fused to the LBD of LXRβ in HEK293 cells (Homo sapiens (Human), UniProt P55055); test: cell-based
[4] = target: T2, LXR α LBD protein (Homo sapiens (Human), UniProt Q13133); test: Human LXRα coactivator recruitment FRET assay, agonist mode; assay type: biochemical
Method in brief: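 LXRα- or LXRβ-LBD at 10 nM (2×) mixed with compound in DMSO, then fluorescein-SRC2-3 peptide 200 nM and Tb-anti-GST antibody 20 nM (4×) added; 2 h at rt. Time-resolved FRET read, 100 µs delay, 200 µs window; EC50 from four-parameter fit of percent control.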

[5] = target: T1, LXR β LBD protein; test: biochemical; assay type: binding; conditions: read-out: LXRβ Binding Ki
Target sequence in this assay (P55055 222-460 limits assumed): as the sequence (P55055 222-460) above

[6] = target: T2, LXR α LBD protein; test: LXR α radioligand binding assay (SPA, competition with [3H]TO901317); conditions: read-out: LXRα Binding Ki
[7] = agonist mode, read-out: FRET LXRβ EC50
[8] = agonist mode, read-out: Cell LXRβ EC50
[9] = agonist mode, read-out: Cell LXRα EC50
[10] = Biological Test Example 2, agonist mode, read-out: Cell LXRα EC50
[11] = Biological Test Example 3, agonist mode
[12] = Biological Test Example 2, agonist mode

Chain of Gal4 DNA binding domain fused to the LBD of LXRα in HEK293 cells (Q13133 209-447): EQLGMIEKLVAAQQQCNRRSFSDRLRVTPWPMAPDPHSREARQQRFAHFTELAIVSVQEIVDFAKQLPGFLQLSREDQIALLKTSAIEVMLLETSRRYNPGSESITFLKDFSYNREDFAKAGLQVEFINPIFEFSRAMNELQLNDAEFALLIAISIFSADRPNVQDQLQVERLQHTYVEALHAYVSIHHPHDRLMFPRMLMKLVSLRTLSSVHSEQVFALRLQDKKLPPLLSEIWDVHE
T2 sequence (Q13133 209-447): as above
Chain of Gal4 DNA binding domain fused to the LBD of LXRβ in HEK293 cells (P55055 222-460 limits assumed): as the sequence (P55055 222-460) above

Compound	EC50 ([1]; read-out: Cell LXRα EC50) [µM]	FRET LXRβ efficacy ([2]; agonist mode)	EC50 [2, 7] [µM]	EC50 [3, 8] [µM]	EC50 ([4]; agonist mode) [µM]	FRET LXRα efficacy ([4]; agonist mode) [%]	EC50 ([2]; read-out: FRET LXRβ EC50) [µM]	EC50 [3] [µM]	further results
CS(=O)(=O)c1cc(N2CCN(C[C@H]3CC[C@H](C(F)(F)F)CC3)[C@H](c3ccccc3)C2)ccc1C(N)=O (single isomer, unassigned) [17-36]	> 20	79%	1.18	> 20	0.808	46			
Cc1ccc(CN2CCN(c3cccc(S(C)(=O)=O)c3)C[C@H]2c2ccccc2)cc1 (single isomer, unassigned) [46-5]	> 20				> 50		7.16	> 20	FRET LXRβ efficacy [2]: 7159 (57) %
CS(=O)(=O)c1cccc(N2CCN(Cc3ccc(OC(F)(F)F)cc3)[C@H](c3ccccc3)C2)c1 (single isomer, unassigned) [46-22]	> 20				4.62	42	1.27	2.1	FRET LXRβ efficacy [2]: 1273 (73) %; Cell LXRβ efficacy [3]: 2095 (9) %
CS(=O)(=O)c1cccc(N2CCN(Cc3ccc(C(F)(F)F)c(F)c3)[C@H](c3ccccc3)C2)c1 (single isomer, unassigned) [46-25]		17972 (116) %			> 50		18	2.56	EC50 [1, 9]: > 20 µM; Cell LXRβ efficacy ([3]; agonist mode): 2557 (13) %
C[C@@]1(c2ccccc2)CN(c2cccc(S(C)(=O)=O)c2)CCN1Cc1ccc(C(F)(F)F)c(Cl)c1 (single isomer, unassigned) [46-35]					> 50		> 50	> 20	EC50 [1, 9]: > 20 µM
Cc1ccccc1[C@@H]1CN(c2cccc(S(C)(=O)=O)c2)CCN1Cc1ccc(C(F)(F)F)nc1 (single isomer, unassigned) [46-45]		1524 (74) %			6.57	43	1.52	7.52	EC50 [1, 9]: > 20 µM; Cell LXRβ efficacy ([3]; agonist mode): 7516 (44) %
CS(=O)(=O)c1cccc(N2CCN(Cc3ccc(C(F)(F)F)nc3)[C@H](c3ccccc3Cl)C2)c1 (single isomer, unassigned) [46-56]	> 20				27	47	2.25	> 20	FRET LXRβ efficacy [2]: 2252 (40) %
CC(C)[C@H]1CC[C@H](CN2CCN(c3cccc(S(C)(=O)=O)c3)C[C@H]2c2ccccc2)CC1 (single isomer, unassigned) [48-14]	> 20	67%	12.3	> 20	> 50				
CS(=O)(=O)c1cccc(N2CCN(C[C@H]3CC[C@H](C(F)(F)F)CC3)[C@H](c3ccccc3)C2)c1 (single isomer, unassigned) [48-32]	19	97%	3.8	3.34	15.3	59			Cell LXRα efficacy [1]: 19000 (4) %; Cell LXRβ efficacy ([3]; agonist mode): 15%
NS(=O)(=O)c1cccc(N2CCN(C[C@H]3CC[C@@H](C(F)(F)F)CC3)[C@H](c3ccccc3)C2)c1 (single isomer, unassigned) [48-34]	9.86	39%	0.704	3.82	2.31	25			Cell LXRα efficacy [1]: 9858 (48) %; Cell LXRβ efficacy ([3]; agonist mode): 32%
NS(=O)(=O)c1cccc(N2CCN(C[C@H]3CC[C@H](C(F)(F)F)CC3)[C@H](c3ccccc3)C2)c1 (single isomer, unassigned) [48-36]	> 20	25%	16.4	> 20	> 50				
NS(=O)(=O)c1cccc(N2CCN(C[C@H]3CC[C@H](C(F)(F)F)CC3)[C@@H](c3ccccc3)C2)c1 (single isomer, unassigned) [48-37]	2.83	30%	1.29	1.18	2.35	33			Cell LXRα efficacy [1]: 2829 (39) %; Cell LXRβ efficacy ([3]; agonist mode): 19%
CS(=O)(=O)c1cccc(N2CCN(C[C@H]3CCN(CC(F)(F)F)C3)[C@H](c3ccccc3)C2)c1 (single isomer, unassigned) [48-60]								6.83	Cell LXRα efficacy [1]: 18622 (13) %; EC50 [1, 10]: 18.6 µM; EC50 [2]: 1.03 µM; FRET LXRβ efficacy [2, 11]: 1032 (33) %; Cell LXRβ efficacy [3, 12]: 6832 (7) %; EC50 [4, 11]: 16.1 µM; FRET LXRα efficacy [4, 11]: 27%
CS(=O)(=O)c1cccc(N2CCN(C[C@@H]3CCN(CC(F)(F)F)C3)[C@H](c3ccccc3)C2)c1 (single isomer, unassigned) [48-62]								4.68	EC50 [1, 10]: > 20 µM; EC50 [2]: 2.1 µM; Cell LXRβ efficacy [3, 12]: 4682 (8) %; EC50 [4, 11]: 9.98 µM; FRET LXRα efficacy [4, 11]: 39%
CS(=O)(=O)c1cc(N2CCN(C[C@H]3CC[C@H](C(F)(F)F)CC3)[C@H](c3ccccc3)C2)ccc1C#N (single isomer, unassigned) [50-3]	> 20								FRET LXRβ efficacy [2, 11]: 52%; EC50 ([2]; Biological Test Example 3, agonist mode, read-out: FRET LXRβ EC50): 1.66 µM; EC50 ([3]; Biological Test Example 2, agonist mode, read-out: Cell LXRβ EC50): > 20 µM; EC50 [4, 11]: 12.9 µM; FRET LXRα efficacy [4, 11]: 71%
COC(=O)c1cnc(N2CCN(c3ccc(F)c(S(C)(=O)=O)c3)C[C@H]2C(C)C)nc1C(F)(F)F [9-2, methyl (R)-2-(4-(4-fluoro-3-(methylsulfonyl)phenyl)-2-isopropylpiperazin-1-yl)-4-(trifluoromethyl)pyrimidine-5-carboxylate]							0.009	0.086	Cell LXRα efficacy [1]: 543 (54) %; EC50 [1, 9]: 0.543 µM; Ki [5]: 0.01 µM; Ki [6]: 0.095 µM; FRET LXRβ efficacy [2]: 9 (91) %; Cell LXRβ efficacy [3]: 86 (34) %
CC(C)(O)c1ccc(CN2CCN(c3cccc(S(C)(=O)=O)c3)C[C@H]2c2ccccc2)cc1 [10-11, (R)-2-(4-((4-(3-(methylsulfonyl)phenyl)-2-phenylpiperazin-1-yl)methyl)phenyl)propan-2-ol]	> 20				> 50		> 50	> 20	
CS(=O)(=O)c1cccc(N2CCN(Cc3ccc(OC(F)F)cc3)[C@H](c3ccccc3)C2)c1 [46-10, (R)-1-(4-(difluoromethoxy)benzyl)-4-(3-(methylsulfonyl)phenyl)-2-phenylpiperazine]					40.7		25	> 20	EC50 [1]: > 20 µM; FRET LXRβ efficacy [2]: 24999 (94) %; FRET LXRα efficacy [4]: 40680 (55) %
C[C@@]1(c2ccccc2)CN(c2cccc(S(C)(=O)=O)c2)CCN1Cc1ccc(C(F)(F)F)cc1 [46-20, (R)-2-methyl-4-(3-(methylsulfonyl)phenyl)-2-phenyl-1-(4-(trifluoromethyl)benzyl)piperazine]					> 50		> 50	> 20	EC50 [1, 9]: > 20 µM
CS(=O)(=O)c1cccc(N2CCN(Cc3ccc(C(F)(F)F)o3)[C@@H](c3ccccc3)C2)c1 [46-66, (S)-4-(3-(methylsulfonyl)phenyl)-2-phenyl-1-((5-(trifluoromethyl)furan-2-yl)methyl)piperazine]			> 50					> 20	Ki [5]: 0.207 µM
benzyl 4-(3-(methylsulfonyl)phenyl)-2-phenylpiperazine-1-carboxylate [1-14]	> 20	25%		> 20	1.54	27			
tert-butyl 2-(2-bromophenyl)-4-(3-(methylsulfonyl)phenyl)piperazine-1-carboxylate [1-9]	> 20	32%	0.564	> 20	> 50				
tert-butyl 2-cyclohexyl-4-(3-(methylsulfonyl)phenyl)piperazine-1-carboxylate [1-11]	16.3	25%	0.34	15.7	19.1	27			Cell LXRα efficacy [1]: 16278 (16) %; Cell LXRβ efficacy ([3]; agonist mode): 2%
tert-butyl 2-methyl-4-(3-(methylsulfonyl)phenyl)-2-phenylpiperazine-1-carboxylate [1-10]	> 20	31%	0.5	> 20	3.53	28			
